Values quoted from earlier work as cited in patent US12498364B2, “Use of soluble urokinase plasminogen activator receptor levels to indicate prevention of cardiovascular disease with a statin” (The Regents of the University of Michigan, priority 2019, dated 2025).
“Also recorded” adds a separate entry of the source.

Assays:
[1] = cited from earlier work
interleukin 1β = molecular target: T1, interleukin 1β (Homo sapiens, UniProt P01584); conditions: patients with heart disease and hs-CRP>2.0 mg/L; cited from earlier work
T1 construct: host or cells: patients (in vivo, endogenous cytokine)

| Compound | incidence of the primary outcome ([1]; overall study, HFpEF) | incidence of cardiovascular events compared to placebo ([1]; post-hoc, North American patients) | hs-CRP compared to placebo (interleukin 1β) | rate of cardiovascular events compared to placebo (interleukin 1β) |
| --- | --- | --- | --- | --- |
| CC(=O)S[C@@H]1CC2=CC(=O)CC[C@]2(C)[C@H]2CC[C@@]3(C)[C@@H](CC[C@@]34CCC(=O)O4)[C@H]12 [spironolactone] | did not decrease the incidence of the primary outcome | lower incidence of cardiovascular events | – | – |
| canakinumab | – | – | reduction in hs-CRP | lower rate of cardiovascular events; also recorded: reduced risk of adverse cardiovascular events |
